This is an account of results in ChEMBL document CHEMBL4118184, “Design, synthesis and biological evaluation of novel pyrimidinedione derivatives as DPP-4 inhibitors” (Bioorg Med Chem Lett, 2018).

Active and inactive are the calls of the source. No cut-off for these calls is given here.

The test system of one series is Mus musculus. Description: Toxicity in BKS db/db mouse assessed as effect on water intake at 100 mg/kg/day up to 4 weeks. The settings on record: in vivo, 672 h. Type of series: organism-based.
Consider `COc1ccc(Cn2c(=O)cc(N3CCC[C@@H](N)C3)n(Cc3cc(F)ccc3C#N)c2=O)cc1OC.O=C(O)CCC(=O)O`, for which the Activity result is recorded as “Toxic”.

In the case of `CN(C)C(=N)N=C(N)N` [METFORMIN], the Activity entry is listed as “Toxic”.

The next series has as its system Mus musculus. Description: Toxicity in BKS db/db mouse assessed as effect on body weight at 100 mg/kg/day up to 4 weeks. Type of series: organism-based. The settings on record: in vivo, 672 h.
Take `COc1ccc(Cn2c(=O)cc(N3CCC[C@@H](N)C3)n(Cc3cc(F)ccc3C#N)c2=O)cc1OC.O=C(O)CCC(=O)O`: the Activity entry is “Non-Toxic”.

`CN(C)C(=N)N=C(N)N` [METFORMIN]: the Activity result was “Non-Toxic”.

For another series, the system named is Mus musculus. Description: Effect on abdominal fat content in BKS db/db mouse assessed as reduction in abdominal fat ratio at 100 mg/kg/day for 4 weeks. Type of series: functional, organism-based.
Conditions: not given
On to `COc1ccc(Cn2c(=O)cc(N3CCC[C@@H](N)C3)n(Cc3cc(F)ccc3C#N)c2=O)cc1OC` [listing 1 of 2 here], for which the outcome was inactive.

Take `CN(C)C(=N)NC(=N)N`: the result was inactive.

The subject of the next series is Mus musculus. Put plainly: Antihyperglycemic activity in BKS db/db mouse assessed as reduction in blood glucose level at 100 mg/kg/day for 4 weeks by glucometric analysis.
Conditions: not given
Type of series: functional, organism-based.
Consider `COc1ccc(Cn2c(=O)cc(N3CCC[C@@H](N)C3)n(Cc3cc(F)ccc3C#N)c2=O)cc1OC` [listing 1 of 2 here], for which the outcome was Active.

Turning to `CN(C)C(=N)NC(=N)N`, the result was Active.

System in the next series: not listed separately
Description: Lipophilicity, log P of the compound. Type of series: physicochemical. The settings on record: octanol/water.
What is called logP is a log measure of how a compound divides between an organic and an aqueous phase. A lower logP goes with a more hydrophilic compound. `COc1cc(Cn2c(=O)cc(N3CCC[C@@H](N)C3)n(Cc3cc(F)ccc3C#N)c2=O)c(Br)c(Br)c1OC` gave a logP of 4.32.

In the case of `Cc1cc(C)cc(Cn2c(=O)cc(N3CCC[C@@H](N)C3)n(Cc3cc(F)ccc3C#N)c2=O)c1`, the logP was 3.89.

Take `COc1c(Br)c(Br)c(Cn2c(=O)cc(N3CCC[C@@H](N)C3)n(Cc3cc(F)ccc3C#N)c2=O)c(Br)c1OC`: the logP came out at 5.15.

Molecule `CC#CCn1c(N2CCC[C@@H](N)C2)cc(=O)n(CCC)c1=O` returned a logP of 0.9.

For `CCCCCCn1c(=O)cc(N2CCC[C@@H](N)C2)n(Cc2cc(F)ccc2C#N)c1=O`, the logP is 3.26.

`CC#CCn1c(N2CCC[C@@H](N)C2)cc(=O)n(CCCCCCCCCC)c1=O` registered a logP of 3.82.

For `CC#CCn1c(N2CCC[C@@H](N)C2)cc(=O)n(Cc2cc(F)cc(F)c2)c1=O`, the logP is 2.12.

Turning to `N#Cc1ccc(F)cc1Cn1c(N2CCC[C@@H](N)C2)cc(=O)n(Cc2cc(F)cc(F)c2)c1=O`, the log partition coefficient (logP) came to 3.23.

`COc1cc(Cn2c(=O)cc(N3CCC[C@@H](N)C3)n(Cc3cc(F)ccc3C#N)c2=O)cc(Br)c1OC`: the logP was 3.49.

`CC#CCn1c(N2CCC[C@@H](N)C2)cc(=O)n(Cc2cc(C)cc(C)c2)c1=O`: the logP is 2.78.

`CC#CCn1c(N2CCC[C@@H](N)C2)cc(=O)n(Cc2c(Br)c(Br)c(OC)c(OC)c2Br)c1=O` came in with a logP of 4.04.

In turn, `CC#CCn1c(N2CCC[C@@H](N)C2)cc(=O)n(CC)c1=O` displayed a logP of 0.41.

`CC#CCn1c(N2CCC[C@@H](N)C2)cc(=O)n(Cc2cc(OC)c(OC)c(Br)c2Br)c1=O` gave a log partition coefficient (logP) of 3.21.

`CC#CCn1c(N2CCC[C@@H](N)C2)cc(=O)n(Cc2cc(Br)c(OC)c(OC)c2)c1=O` displayed a logP of 2.38.

Molecule `COc1ccc(Cn2c(=O)cc(N3CCC[C@@H](N)C3)n(Cc3cc(F)ccc3C#N)c2=O)cc1OC` [listing 2 of 2 here] had a log partition coefficient (logP) of 2.66.

`CC#CCn1c(N2CCC[C@@H](N)C2)cc(=O)n(Cc2ccc(OC)c(OC)c2)c1=O` registered a log partition coefficient (logP) of 1.55.

In turn, `CC#CCn1c(N2CCC[C@@H](N)C2)cc(=O)n(CCCCCC)c1=O` returned a log partition coefficient (logP) of 2.15.

`CCCCCCCCCCn1c(=O)cc(N2CCC[C@@H](N)C2)n(Cc2cc(F)ccc2C#N)c1=O`: the logP amounted to 4.93.
